For this experiment, the target named is Sodium-dependent noradrenaline transporter (Homo sapiens, UniProt P23975). The experiment is described as follows: Compound was tested for its ability to inhibit the uptake of Norepinephrine in Norepinephrine transporter system. Type of experiment: functional.

Structures are written as SMILES. pIC50: −log10 of the molar value.

Chain of Sodium-dependent noradrenaline transporter (P23975 whole entry): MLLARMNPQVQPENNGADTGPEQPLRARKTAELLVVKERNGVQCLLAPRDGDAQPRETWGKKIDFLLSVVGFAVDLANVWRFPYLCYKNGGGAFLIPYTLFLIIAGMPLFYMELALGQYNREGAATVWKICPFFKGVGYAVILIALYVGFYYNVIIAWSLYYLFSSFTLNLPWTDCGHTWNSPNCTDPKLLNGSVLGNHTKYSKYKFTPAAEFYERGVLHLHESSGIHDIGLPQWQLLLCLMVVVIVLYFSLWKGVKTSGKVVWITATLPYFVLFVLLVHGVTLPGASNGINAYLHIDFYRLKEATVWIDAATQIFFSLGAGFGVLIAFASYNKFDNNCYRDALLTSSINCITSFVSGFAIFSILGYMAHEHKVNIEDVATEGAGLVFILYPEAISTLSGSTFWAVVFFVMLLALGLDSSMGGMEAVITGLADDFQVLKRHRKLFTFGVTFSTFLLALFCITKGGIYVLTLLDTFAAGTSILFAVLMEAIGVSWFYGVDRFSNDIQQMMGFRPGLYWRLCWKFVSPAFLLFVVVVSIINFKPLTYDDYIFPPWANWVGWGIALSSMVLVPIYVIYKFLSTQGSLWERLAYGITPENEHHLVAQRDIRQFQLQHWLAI

The term pIC50 denotes −log10 of the IC50, conventionally taken in molar units. Read a high pIC50 as a low IC50. In the case of `c1ccc(CCCN2CCN(CCOC(c3ccccc3)c3ccccc3)CC2)cc1`, the pIC50 was 5.90.
